Measurements reported in article PMC5054527, “Mechanism of high affinity inhibition of the human urate transporter URAT1” (Scientific Reports, 2016).

Assays:
Test in all cases: URAT1 uric acid transport activity assay
Assay type in all cases: cell-based, human/rat
[1] = target: T1, h-r TM6 URAT1 chimera (Homo sapiens, UniProt Q96S37, C272F/L274V); conditions: HEPES pH 7.3, 100 μM 14C-uric acid
T1 construct: expressed in transfected cells; host or cells: HEK-293T

[2] = target: T2, h-r TM1 chimera (rURAT1 residues 1–99 and hURAT residues 100–553) (UniProt Q3ZAV1+Q96S37)
T2 construct: a chimera consisting of rURAT1 residues 1–99 and hURAT residues 100–553 (h-r TM1); expressed in transfected cells; host or cells: HEK-293T
T2 sequence (Q3ZAV1 1-99, change not shown): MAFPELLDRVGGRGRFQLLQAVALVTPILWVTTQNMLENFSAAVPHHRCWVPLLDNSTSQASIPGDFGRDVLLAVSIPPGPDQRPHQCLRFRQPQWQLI
T2 sequence (Q96S37 100-553, change not shown): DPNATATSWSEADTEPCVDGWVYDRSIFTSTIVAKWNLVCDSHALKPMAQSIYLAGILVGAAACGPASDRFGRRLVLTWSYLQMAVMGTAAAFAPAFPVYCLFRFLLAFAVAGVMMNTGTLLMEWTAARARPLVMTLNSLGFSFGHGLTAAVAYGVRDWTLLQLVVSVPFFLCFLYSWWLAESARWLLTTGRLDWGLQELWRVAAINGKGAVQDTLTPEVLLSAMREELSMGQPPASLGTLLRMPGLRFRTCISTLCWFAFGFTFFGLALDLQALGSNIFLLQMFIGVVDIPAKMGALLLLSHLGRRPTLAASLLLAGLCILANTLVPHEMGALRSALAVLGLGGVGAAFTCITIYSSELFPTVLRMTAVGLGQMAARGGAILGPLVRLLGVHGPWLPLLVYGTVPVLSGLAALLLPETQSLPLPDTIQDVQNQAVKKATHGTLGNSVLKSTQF

[3] = target: T3, h-r TM11 URAT1 chimera (Homo sapiens, UniProt Q96S37, I481M/M474V)
T3 construct: expressed in transfected cells; host or cells: HEK-293T
T3 sequence (Q96S37 whole entry M474V/I481M): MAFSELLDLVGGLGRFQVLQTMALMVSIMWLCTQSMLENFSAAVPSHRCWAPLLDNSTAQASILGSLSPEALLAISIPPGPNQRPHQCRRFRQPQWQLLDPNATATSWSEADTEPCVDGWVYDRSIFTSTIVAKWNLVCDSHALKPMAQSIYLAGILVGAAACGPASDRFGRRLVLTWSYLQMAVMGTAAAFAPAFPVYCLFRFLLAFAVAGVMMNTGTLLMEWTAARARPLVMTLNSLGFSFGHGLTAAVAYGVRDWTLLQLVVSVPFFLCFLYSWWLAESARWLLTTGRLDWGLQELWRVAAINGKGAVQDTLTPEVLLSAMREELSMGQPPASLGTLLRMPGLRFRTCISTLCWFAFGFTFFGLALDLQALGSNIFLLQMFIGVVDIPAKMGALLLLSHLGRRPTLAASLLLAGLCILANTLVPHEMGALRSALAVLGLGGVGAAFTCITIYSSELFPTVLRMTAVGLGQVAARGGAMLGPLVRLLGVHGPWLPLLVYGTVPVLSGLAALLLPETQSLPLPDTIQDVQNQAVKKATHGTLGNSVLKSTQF

[4] = target: T4, h-r TM9-C URAT1 chimera (Homo sapiens, UniProt Q96S37, A432I/A436S/H428R/T424I); conditions: HEPES pH 7.3, 100 μM 14C-uric acid
T4 construct: expressed in transfected cells; host or cells: HEK-293T
T4 sequence (Q96S37 whole entry T424I/H428R/A432I/A436S): as the sequence (Q96S37 whole entry M474V/I481M) above, with T424I, H428R, A432I, A436S, V474M, M481I counted along it

[5] = target: T5, h-r TM5-C URAT1 chimera (Homo sapiens, UniProt Q96S37, A249G/A250S/G246V/H245Q); conditions: HEPES pH 7.3, 100 μM 14C-uric acid
T5 construct: expressed in transfected cells; host or cells: HEK-293T
T5 sequence (Q96S37 whole entry H245Q/G246V/A249G/A250S): as the sequence (Q96S37 whole entry M474V/I481M) above, with H245Q, G246V, A249G, A250S, V474M, M481I counted along it

[6] = target: T6, h-r TM10 URAT1 chimera (Homo sapiens, UniProt Q96S37, G444S/I452V/V445L/Y455F); conditions: HEPES pH 7.3, 100 μM 14C-uric acid
T6 construct: expressed in transfected cells; host or cells: HEK-293T
T6 sequence (Q96S37 whole entry G444S/V445L/I452V/Y455F): as the sequence (Q96S37 whole entry M474V/I481M) above, with G444S, V445L, I452V, Y455F, V474M, M481I counted along it

T1 sequence (Q96S37 whole entry C272F/L274V): as the sequence (Q96S37 whole entry M474V/I481M) above, with C272F, L274V, V474M, M481I counted along it

## O=C1C(CC[S+]([O-])c2ccccc2)C(=O)N(c2ccccc2)N1c1ccccc1 (centres unmarked) [sulfinpyrazone]
[1]
  IC50: 30 ± 4 µM
[2]; from IC50 values
  fold reduced affinity of h-r TM1 compared to hURAT1: 3 fold
[2]; h-r TM1, HEPES pH 7.3, 100 μM 14C-uric acid
  IC50: 93 ± 17 µM
[3]; from IC50 values
  fold reduced affinity of h-r TM11 compared to hURAT1: 3 fold
[3]; h-r TM11, HEPES pH 7.3, 100 μM 14C-uric acid
  IC50: 100 ± 15 µM
[4]
  IC50: 38 ± 11 µM
[5]
  IC50: 34 ± 4 µM
[6]
  IC50: 49 ± 11 µM
